Entries after “also recorded” stand apart in the source; their conditions may differ. Like-named read-outs stand apart in the source and are kept apart here. Marks after values point to notes of the source that are not given here.
Columns and labels:
[1] = target: T1, human DDC (Homo sapiens, UniProt P20711); test: Assay of the inhibitory activity: spectrophotometric measurement of dopamine production by DDC; type: biochemical; conditions: for BE (binding efficiency): binding energy per unit of mass, from Ki and molecular weight in kDa; for Inhibition profile: type of inhibition from Lineweaver–Burk plots; for IC50: 0.1 mM L-Dopa, pH 7.4, 25°C, 9 concentrations in duplicate; for Inhibition of DDC activity: at a concentration in which solubility of the compound was maximum; for Ki′: mixed or noncompetitive inhibition
T1 construct: made in house
T1 sequence (P20711 1-480): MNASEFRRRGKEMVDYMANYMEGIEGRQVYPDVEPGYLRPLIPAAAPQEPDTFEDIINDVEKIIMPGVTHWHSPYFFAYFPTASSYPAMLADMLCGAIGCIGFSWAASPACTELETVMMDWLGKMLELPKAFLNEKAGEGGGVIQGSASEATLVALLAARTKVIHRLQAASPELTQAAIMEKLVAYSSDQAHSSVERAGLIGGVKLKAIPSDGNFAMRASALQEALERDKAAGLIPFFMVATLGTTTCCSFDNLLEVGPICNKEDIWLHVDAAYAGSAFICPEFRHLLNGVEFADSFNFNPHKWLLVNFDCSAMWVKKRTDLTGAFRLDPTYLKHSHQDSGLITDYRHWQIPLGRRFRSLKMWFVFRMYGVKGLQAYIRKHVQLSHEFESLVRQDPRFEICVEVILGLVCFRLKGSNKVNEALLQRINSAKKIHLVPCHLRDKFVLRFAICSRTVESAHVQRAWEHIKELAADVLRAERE
Protocol: DDC activity was determined by measuring the production of dopamine with a spectrophotometric assay outlined by Sherald et al. and modified by Charteris and John. The reaction was carried out in 0.1 M potassium phosphate buffer pH 7.4 at 25°C for 1 min and stopped by inactivation of the enzyme at 100°C for 90 sec. The inhibitory assay was performed by measuring the decarboxylase activity of DDC with 50 nM enzyme, 0.1 mM L-Dopa, and 10 µM PLP in the presence and in the absence of a fixed amount of each compound. Various amounts of dimethyl sulphoxyde (DMSO) were necessary to solubilize the compounds in 100 mM potassium phosphate buffer, pH 7.4. […] Compounds were evaluated at 9 concentrations, and each in duplicate. IC50 values were derived by nolinear regression analysis. The related inhibition type of the compounds on human DDC was identified from Lineweaver–Burk plots, and Ki and/or Ki′ values for the inhibitors tested were calculated by the software Origin 7.0.

[2] = target: T1, human DDC; test: Enzyme-ligand equilibrium dissociation constant from visible CD signal changes of DDC; type: binding; conditions: change of 420 nm or 335 nm CD band, 100 mM potassium phosphate pH 7.4
Protocol: The equilibrium dissociation constant for each tested compound from DDC was determined by monitoring the decrease in the 420 nm CD signal of DDC (7 µM) in the presence of various ligand concentrations in 100 mM potassium phosphate buffer, pH 7.4. In any case, the maximun DMSO concentration in the mixture was kept lower than 1% (v/v). The KD values were obtained from the fitting of the data to the equation [drawing 3] where [E]t and [L]t represent the total concentrations of DDC dimer and ligand, respectively, Y refers to the visible CD signal change at 420 nm at the ligand concentration [L], and Ymax refers to the CD signal when all enzyme molecules are complexed with the ligand. CD measurements were performed with a Jasco J-710 spectropolarimeter using quartz cuvettes with 1 cm path length.

[3] = 50 nM enzyme, L-Dopa, 10 µM PLP, 0.1 M potassium phosphate pH 7.4, 25°C, from Lineweaver–Burk plots, read-out: Ki
[4] = 50 nM enzyme, 10 µM PLP, read-out: IC50
[5] = Ki, competitive inhibition, Table 4, third screening
[6] = competitive inhibition, Table 4, third screening, read-out: Ki
[7] = 0.1 M potassium phosphate pH 7.4, 25°C, from Lineweaver–Burk plots

Row | SMILES | Ki [1, 3] [µM] | BE (binding efficiency) [1] | Inhibition profile [1] | IC50 [1, 4] [µM] | Kd [2] [µM] | also measured
1 | Oc1ccc(/C=N/n2c(S)nnc2-c2ccc(Cl)cc2Cl)cc1 [Compound 18] | 63.2 ± 3.1 | 11.5 | competitive inhibitors |  |  | 
2 | Cc1cccc(-c2nnc(S)n2/N=C/c2ccc(O)c(O)c2)c1 [Compound 43] |  | 17,5 |  | 3.8 ± 0.6 | 2.8 ± 0.5 | Ki [1, 5]: 1.9 ± 0.1 µM
3 | Oc1cccc(/C=N/n2c(S)nnc2-c2ccc(Cl)cc2Cl)c1O [Compound 11] | 10.7 ± 2.4 | 13.0 | competitive inhibition | 27.3 ± 1.6 | 16.1 ± 2.1 | Inhibition of DDC activity [1]: ≥ 70%
4 | O=C1Nc2ccc(S(=O)(=O)N3CCCCC3)c3cccc1c23 [Compound 15] |  |  |  |  |  | Inhibition of DDC activity [1]: do not inhibit DDC activity
5 | O=C(Nc1ccccc1)c1ccccc1NS(=O)(=O)c1ccc2[nH]c(=O)[nH]c2c1 [Compound 17] | 4.4 ± 1.4 | 13.1 | competitive inhibitors | 16.8 ± 1.7 | 17.5 ± 5.1 | increase of affinity ([1]; compared with compound 5): about 13 fold
6 | Cc1ccccc1-c1nnc(S)n1/N=C/c1ccc(O)c(O)c1 [Compound 41] |  | 15,4 |  | 30.1 ± 2.1 | 6.1 ± 0.5 | Ki [1, 5]: 9.8 ± 0.5 µM
7 | Cc1ccc(-c2nnc(S)n2/N=C/c2ccc(O)c(O)c2)cc1 [Compound 42] |  | 17,5 |  | 5.2 ± 0.4 | 2.7 ± 0.5 | Ki [1, 5]: 2 ± 0.2 µM
8 | Oc1ccc(/C=N/n2c(S)nnc2COc2ccccc2)cc1O [Compound 46] |  | 17,4 |  | 3.5 ± 0.3 |  | Ki [1, 6]: 1.1 ± 0.1 µM
9 | CCOc1cc(-c2ccc(O)c(O)c2)cc(=O)c2c(C)oc(C)c12 [Compound 6] |  |  |  |  |  | Inhibition of DDC activity [1]: do not inhibit DDC activity
10 | Oc1cccc(/C=N/n2c(S)nnc2-c2ccccc2)c1O [Compound 23] | < 10 | 16.8 | competitive inhibitors |  | 4.7 ± 0.5 | IC50 ([1]; 50 nM enzyme, 10 µM PLP): 16.6 ± 0.3 µM; Ki ([1]; Ki, 50 nM enzyme, L-Dopa, 10 µM PLP, 0.1 M potassium phosphate pH 7.4, 25°C, from Lineweaver–Burk plots): 5.7 ± 0.1 µM
11 | Cc1nnc(S)n1/N=C/c1ccc(O)c(O)c1 [Compound 39] |  | 19,9 |  | 27.5 ± 3.3 | 9.1 ± 0.3 | Ki [1, 6]: 10.8 ± 0.8 µM
12 | Oc1ccccc1/C=N/n1c(S)nnc1-c1ccccc1 [Compound 31] | 33.4 ± 5 | 15.1 | competitive inhibitors | 83 ± 12 | 31.7 ± 3.4 | 
13 | Nc1c(S(=O)(=O)c2ccccc2)c2nc3ccccc3nc2n1/N=C/c1ccc(O)c(O)c1 [Compound 12] |  |  | noncompetitive inhibition |  |  | Inhibition of DDC activity [1]: ~55%; Ki′ [1, 7]: 19.4±1.4^b µM
14 | CC(C)C(NC(=O)Cc1n[nH]c(=O)c2ccccc12)c1nc2ccccc2[nH]1 (stereo not drawn) [Compound 13] |  |  |  |  |  | Inhibition of DDC activity [1]: do not inhibit DDC activity
15 | Oc1ccc(/C=N/n2c(S)nnc2-c2ccccc2Cl)cc1O [Compound 25] | 3.7 ± 0.2 | 15.7 | competitive inhibitors | 15.2 ± 1.3 | 2.4 ± 0.1 | 
16 | Oc1ccc(/C=N/n2c(S)nnc2-c2ccccc2)c(O)c1O [Compound 22] | 15.1 ± 0.1 |  | mixed mode | 6.7 ± 0.9 |  | Ki′ [1, 7]: 46.7 ± 0.5 µM
17 | O=C(O)c1ccccc1NS(=O)(=O)c1ccc2[nH]c(=O)[nH]c2c1 [Compound 16] | 59.8 ± 0.3 | 12.7 | competitive inhibitors |  |  | 
18 | Oc1ccc(C=Nn2c(S)nnc2-c2ccc(Cl)cc2)c(O)c1 [Compound 26] |  | 12.1 | noncompetitive inhibitors; also recorded: Nonconmpetitive |  |  | Ki′ [1, 7]: 65.2±−4.1^b µM
19 | Oc1ccccc1/C=N/n1c(S)nnc1-c1ccc(F)cc1 [Compound 33] | 16.5 ± 0.8 |  | mixed mode |  |  | Ki′ [1, 7]: 325 ± 39 µM

From paper PMC3285636, “Identification by Virtual Screening and In Vitro Testing of Human DOPA Decarboxylase Inhibitors” (PLoS ONE, 2012)
